From patent publication EP0823908B1, “PYRIDO[2,3-d]PYRIMIDINES FOR INHIBITING PROTEIN TYROSINE KINASE MEDIATED [sequence] PROLIFERATION” (Warner-Lambert Company LLC, priority 1995, dated 1996) come the findings set out here.

Holding throughout (assay type): biochemical
Assay [1] addresses T1, human FGF-1 (flg) receptor tyrosine kinase (Homo sapiens, UniProt P11362).
T1 construct: amplify a fragment of DNA that codes for the intracellular tyrosine kinase domain; made in house; host or cells: SF9 insect cells (baculovirus)
The experiment in a line: FGF receptor tyrosine kinase assay (32P incorporation into glutamate-tyrosine co-polymer). The source says: (§1) Full length cDNAs for the mouse PDGF-β and human FGF-1 (flg) receptor tyrosine kinases were obtained from J. Escobedo and prepared as described in J. Biol. Chem., 262:1482-1487 […], and PCR primers were designed to amplify a fragment of DNA that codes for the intracellular tyrosine kinase domain. The fragment was melded into a baculovirus vector, cotransfected with AcMNPV DNA, and the recombinant virus isolated. SF9 insect cells were infected with the virus to overexpress the protein, and the cell lysate was used for the assay. The assay was performed in 96-well plates (100 µL/incubation/well), and conditions were optimized to measure the incorporation of ^32P from γ^32P-ATP into a glutamate-tyrosine co-polymer substrate. Briefly, to each well was added 82.5 µL of incubation buffer containing 25 mM Hepes (pH 7.0), 150 mM NaCl, 0.1% Triton X-100, 0.2 mM PMSF, 0.2 mM Na3VO4, 10 mM MnCl2, and 750 µg/mL of Poly (4:1) glutamate-tyrosine followed by 2.5 µL of inhibitor and 5µL of enzyme lysate (7.5 µg/µL FGF-TK or 6.0 µg/µL PDGF-TK) to initiate the reaction. Following a 10 minute incubation at 25°C, 10 µL of γ^32P-ATP (0.4 µCi plus 50 µM ATP) was added to each well and samples were incubated for an additional 10 minutes at 25°C. The reaction was terminated by the addition of 100 µL of 30% trichloroacetic acid (TCA) containing 20 mM sodium pyrophosphate and precipitation of material onto glass fiber filter mats (Wallac). […] Nonspecific activity was defined as radioactivity retained on the filters following incubation of samples with buffer alone (no enzyme). Specific enzymatic activity was defined as total activity (enzyme plus buffer) minus nonspecific activity.

Assay [2] has as its target T2, Human EGF receptor tyrosine kinase (Homo sapiens, UniProt P00533).
T2 construct: Human EGF receptor tyrosine kinase was isolated from A431 epidermoid carcinoma cells; endogenous in cells; host or cells: A431 epidermoid carcinoma cells
The experiment in a line: EGF receptor tyrosine kinase enzyme assay (substrate peptide phosphorylation). The settings on record: for inhibition at 50 µM: read-out: EGF-FL % Inhibition at 50 µM; for IC50: read-out: EGF-FL IC50. As to the method: Human EGF receptor tyrosine kinase was isolated from A431 epidermoid carcinoma cells by the following methods. Cells were grown in roller bottles in 50% Dulbecco's Modified Eagle medium and 50% HAM F-12 nutrient media (Gibco) containing 10% fetal calf serum. Approximately 10^9 cells were lysed in two volumes of buffer containing 20 mM 2-(4N-[2-hydroxymethyl]-piperazin-1-yl)ethanesulfonic acid, pH 7.4, 5 mM ethylene glycol bis(2-aminoethyl ether) N,N,N',N'-tetraacetic acid, 1% Triton X-100, 10% glycerol, 0.1 mM sodium orthovanadate, 5 mM sodium fluoride, 4 mM pyrophosphate, 4 mM benzamide, 1 mM dithiothreitol, 80 µg/mL aprotinin, 40 µg/mL leupeptin, and 1 mM phenylmethylsulfonyl fluoride. […] Contaminating proteins were washed from the resin with 1 M NaCl in equilibration buffer, and the enzyme was eluted with 0.5 M N-acetyl-1-D-glucosamine in equilibration buffer.
The reaction was terminated by the addition of 2 mL of 75 mM phosphoric acid and passed through a 2.5-cm phosphocellulose filter disc to bind the peptide. The filter was washed 5 times with 75 mM phosphoric acid and placed in a vial along with 5 mL of scintillation fluid (Ready gel Heckman).

The next assay deals with T3, C-src kinase (Homo sapiens, UniProt P12931).
T3 construct: made in house; host or cells: baculovirus infected insect cells
T3 sequence (P12931 whole entry): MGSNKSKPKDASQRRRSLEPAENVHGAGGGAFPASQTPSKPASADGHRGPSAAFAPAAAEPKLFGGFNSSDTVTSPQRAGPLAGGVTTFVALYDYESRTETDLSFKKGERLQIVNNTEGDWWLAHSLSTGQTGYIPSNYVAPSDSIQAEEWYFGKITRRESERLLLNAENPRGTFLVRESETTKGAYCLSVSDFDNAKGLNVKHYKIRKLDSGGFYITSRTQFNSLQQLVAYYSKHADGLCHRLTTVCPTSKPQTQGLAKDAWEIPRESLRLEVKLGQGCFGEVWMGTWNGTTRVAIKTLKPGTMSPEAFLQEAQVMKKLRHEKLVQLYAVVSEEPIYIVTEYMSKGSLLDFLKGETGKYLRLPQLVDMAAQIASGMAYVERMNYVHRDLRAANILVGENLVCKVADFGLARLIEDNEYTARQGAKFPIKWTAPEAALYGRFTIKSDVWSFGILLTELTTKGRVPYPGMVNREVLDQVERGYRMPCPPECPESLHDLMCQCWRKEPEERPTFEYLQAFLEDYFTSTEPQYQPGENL
The assay is described as follows: C-src kinase assay (poly GluTyr substrate). The settings on record: for inhibition at 50 µM: read-out: C-src TK % Inhibition at 50 µM; for IC50: read-out: C-src TK IC50. As to the method:
V-src or C-src kinase is purified from baculovirus infected insect cell lysates using an antipeptide monoclonal antibody directed against the N-terminal 2-17 amino acids. The antibody, covalently linked to 0.65-µm latex beads, is added to a suspension of insect cell lysis buffer comprised of 150 mM NaCl, 50 mM Tris pH 7.5, 1 mM DTT, 1% NP-40, 2 mM EGTA, 1 mM sodium vanadate, 1 mM PMSF, 1 µg/mL each of leupeptin, pepstatin, and aprotinin. […] At the end of the lysate incubation, the beads are rinsed 3 times in lysis buffer, resuspended in lysis buffer containing 10% glycerol, and frozen. These latex beads are thawed, rinsed 3 times in assay buffer which is comprised of 40 mM tris pH 7.5, 5 mM MgCl2, and suspended in the same buffer. In a Millipore 96-well plate with a 0.65 µm polyvinylidine membrane bottom are added the reaction components: 10-µL V-src or C-src beads, 10 µL of 2.5 mg/mL poly GluTyr substrate, 5 µM ATP containing 0.2 µCi labeled ^32P-ATP, 5µL DMSO containing inhibitors or as a solvent control, and buffer to make the final volume 125 µL. The reaction is started at room temperature by addition of the ATP and quenched 10 minutes later by the addition of 125 µL of 30% TCA, 0.1 M sodium pyrophosphate for 5 minutes on ice. […] The filters are punched, counted in a liquid scintillation counter, and the data examined for inhibitory activity in comparison to a known inhibitor such as erbstatin.

The target in assay [3] is T4, mouse PDGF-β receptor tyrosine kinase (Mus musculus, UniProt P05622).
T4 construct: amplify a fragment of DNA that codes for the intracellular tyrosine kinase domain; made in house; host or cells: SF9 insect cells (baculovirus)
T4 sequence (P05622 599-961 limits assumed): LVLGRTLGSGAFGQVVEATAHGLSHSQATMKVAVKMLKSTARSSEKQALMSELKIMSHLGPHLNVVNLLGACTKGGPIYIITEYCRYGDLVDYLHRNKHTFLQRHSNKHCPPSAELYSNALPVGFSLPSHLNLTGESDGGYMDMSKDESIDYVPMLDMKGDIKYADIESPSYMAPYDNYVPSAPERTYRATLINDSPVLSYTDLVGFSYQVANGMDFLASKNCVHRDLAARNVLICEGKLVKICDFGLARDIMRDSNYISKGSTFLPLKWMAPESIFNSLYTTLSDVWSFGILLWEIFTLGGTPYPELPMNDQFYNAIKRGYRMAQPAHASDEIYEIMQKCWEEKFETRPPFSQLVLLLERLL
The assay is described as follows: PDGF receptor tyrosine kinase assay (32P incorporation into glutamate-tyrosine co-polymer). The conditions noted are these: for inhibition at 50 µM: read-out: PDGFr-TK % Inhibition at 50 µM; for IC50: read-out: PDGFr-TK IC50.
From the text: as §1

Like-named read-outs stand apart in the source and are kept apart here.

T2 sequence (P00533 25-1210): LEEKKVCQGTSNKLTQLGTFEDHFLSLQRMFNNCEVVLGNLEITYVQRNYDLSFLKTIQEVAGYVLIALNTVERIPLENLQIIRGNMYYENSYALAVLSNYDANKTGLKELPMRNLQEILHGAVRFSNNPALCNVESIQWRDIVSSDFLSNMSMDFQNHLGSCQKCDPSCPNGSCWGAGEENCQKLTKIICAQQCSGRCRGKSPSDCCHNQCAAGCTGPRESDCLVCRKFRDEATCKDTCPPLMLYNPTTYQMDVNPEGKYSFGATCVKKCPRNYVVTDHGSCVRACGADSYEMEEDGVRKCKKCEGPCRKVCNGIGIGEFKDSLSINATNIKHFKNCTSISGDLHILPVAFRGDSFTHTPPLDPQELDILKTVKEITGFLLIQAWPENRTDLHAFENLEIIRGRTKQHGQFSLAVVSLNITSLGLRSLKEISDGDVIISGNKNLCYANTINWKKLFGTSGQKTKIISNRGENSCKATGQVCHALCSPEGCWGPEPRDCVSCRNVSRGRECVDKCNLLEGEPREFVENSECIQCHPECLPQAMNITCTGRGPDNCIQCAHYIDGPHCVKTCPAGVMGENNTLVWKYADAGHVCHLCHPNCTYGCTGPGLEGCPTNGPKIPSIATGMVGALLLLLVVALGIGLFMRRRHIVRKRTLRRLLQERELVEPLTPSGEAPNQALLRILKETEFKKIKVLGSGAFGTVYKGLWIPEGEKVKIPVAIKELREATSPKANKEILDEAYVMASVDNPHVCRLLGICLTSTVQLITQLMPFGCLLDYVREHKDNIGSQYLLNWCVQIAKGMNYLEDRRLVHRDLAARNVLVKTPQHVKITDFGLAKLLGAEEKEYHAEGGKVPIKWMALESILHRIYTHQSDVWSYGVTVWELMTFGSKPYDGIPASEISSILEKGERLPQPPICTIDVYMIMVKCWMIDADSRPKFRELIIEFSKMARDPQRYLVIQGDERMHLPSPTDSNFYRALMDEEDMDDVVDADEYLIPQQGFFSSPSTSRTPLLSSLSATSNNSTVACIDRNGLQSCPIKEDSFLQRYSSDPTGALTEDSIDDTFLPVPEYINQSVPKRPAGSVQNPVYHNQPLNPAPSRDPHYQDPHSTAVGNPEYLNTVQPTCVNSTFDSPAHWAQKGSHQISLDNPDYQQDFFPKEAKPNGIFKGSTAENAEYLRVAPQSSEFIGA
T1 sequence (P11362 478-767 limits assumed): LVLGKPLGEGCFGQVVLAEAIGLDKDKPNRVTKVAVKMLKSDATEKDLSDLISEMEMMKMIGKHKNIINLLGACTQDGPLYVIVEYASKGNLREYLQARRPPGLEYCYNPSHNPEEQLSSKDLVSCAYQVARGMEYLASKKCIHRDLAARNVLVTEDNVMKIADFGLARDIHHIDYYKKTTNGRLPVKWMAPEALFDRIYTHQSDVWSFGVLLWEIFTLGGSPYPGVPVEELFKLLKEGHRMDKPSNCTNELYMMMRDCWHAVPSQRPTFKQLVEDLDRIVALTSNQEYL

What is called IC50 is the point on the concentration scale where inhibition reaches its midpoint. The inhibition is the percentage by which the read-out fell short of the control. Regarding `Cn1c(=O)c(-c2c(Cl)cccc2Cl)cc2cnc(S(C)(=O)=O)nc21` [Example 39, 6-(2,6-Dichlorophenyl)-2-methanesulfonyl-8-methyl-8H-pyrido[2,3-d]pyrimidin-7-one], the 50% inhibitory concentration (IC50) in assay [1] (read-out: FGFr-TK IC50) is 5500 nM. The inhibition at 50 µM in assay [2] came out at 24%; at C-src kinase it was 26%; in assay [3] it was 19%.

As to `COC(=O)c1ccc(Cn2c(=O)c(-c3c(Cl)cccc3Cl)cc3cnc(N)nc32)cc1` [Example 110, 4-[2-Amino-6-(2,6-dichlorophenyl)-7-oxo-7H-pyrido[2,3-d]pyrimidin-8-yl-methyl]-benzoic acid methyl ester], the IC50 in assay [1] (read-out: FGFr-TK IC50) was 20300 nM; at C-src kinase it was 17200 nM. For the same compound, the inhibition at 50 µM in assay [2] stood at 64%; in assay [3], 25%.

Regarding `COc1cccc(Nc2ncc3cc(-c4c(Cl)cccc4Cl)c(=O)n(C)c3n2)c1` [Example 72, 6-(2,6-Dichlorophenyl)-2-(3-methoxyphenylamino)-8-methyl-8H-pyrido[2,3-d]pyrimidin-7-one], the values for the IC50 (in assay [2]; on C-src kinase) were 33 nM and 52 nM, respectively.

As for `Cn1c(=O)c(-c2c(Cl)cccc2Cl)cc2cnc(Nc3cccc(C(=O)O)c3)nc21` [Example 90, 3-[6-(2,6-Dichlorophenyl)-8-methyl-7-oxo-7,8-dihydro-pyrido[2,3-d]pyrimidin-2-ylamino]-benzoic acid], the IC50 in assay [1] (read-out: FGFr-TK IC50) came out at 110 nM; in assay [2] it was 150 nM; on C-src kinase it was 6 nM; in assay [3], 140 nM.

Consider `Cn1c(=O)c(-c2c(Cl)cccc2Cl)cc2cnc(NCc3cccnc3)nc21` [Example 50, 6-(2,6-Dichlorophenyl)-8-methyl-2-[(pyridin-3-ylmethyl)-amino]-8H-pyrido[2,3-d]pyrimidin-7-one], for which the IC50 stood at 4170 nM in assay [1] (read-out: FGFr-TK IC50), 3240 nM on C-src kinase and 7310 nM in assay [3]. Further, the inhibition at 50 µM in assay [2] came out at 59%.

For `Cn1c(=O)c(-c2c(Cl)cccc2Cl)cc2cnc(Nc3cccnc3)nc21` [Example 79, 6-(2,6-Dichlorophenyl)-8-methyl-2-(pyridin-3-ylamino)-8H-pyrido[2,3-d]pyrimidin-7-one], the IC50 was found to be 172 nM in assay [1], 110 nM in assay [2] and 44 nM on C-src kinase.

On to `CC(C)Cn1c(=O)c(-c2c(Cl)cccc2Cl)cc2cnc(N)nc21` [Example 33, 2-Amino-6-(2,6-dichlorophenyl)-8-isobutyl-8H-pyrido[2,3-d]pyrimidin-7-one], for which the results for the IC50 (in assay [1] (read-out: FGFr-TK IC50); on C-src kinase; in assay [3]) were 426 nM, 890 nM and 1840 nM, respectively. In assay [2], the inhibition at 50 µM came to 95%.

Consider `CCNc1ncc2cc(-c3c(Cl)cccc3Cl)c(=O)n(C)c2n1` [Example 42, 6-(2,6-Dichlorophenyl)-2-ethylamino-8-methyl-8H-pyrido[2,3-d]dlpyrimidin-7-one], for which the IC50 in assay [1] (read-out: FGFr-TK IC50) turned out to be 800 nM; on C-src kinase, 588 nM; in assay [3], 4490 nM. Besides, the inhibition at 50 µM in assay [2] came to 82%.

`Cn1c(=O)c(-c2c(Cl)cccc2Cl)cc2cnc(NCCCN3CCOCC3)nc21` [Example 47, 6-(2,6-Dichlorophenyl)-8-methyl-2-(3-morpholin-4-yl-propylamino)-8H-pyrido[2,3-d]pyrimidin-7-one]: the inhibition at 50 µM in assay [2] stood at 70%; at C-src kinase, 36%. Moreover, in assay [3], the IC50 amounted to 5980 nM.

As for `CCCn1c(=O)c(-c2c(Cl)cccc2Cl)cc2cnc(N)nc21` [Example 31, 2-Amino-6-(2,6-dichlorophenyl)-8-propyl-8H-pyrido[2,3-d]pyrimidin-7-one], the results for the IC50 in assay [1] (read-out: FGFr-TK IC50) and in assay [3] were 460 nM and 1200 nM, respectively. Also, the inhibition at 50 µM (in assay [2]; on C-src kinase) was 100% throughout.

In the case of `Nc1ncc2cc(-c3c(Cl)cccc3Cl)c(=O)n(Cc3ccncc3)c2n1` [Example 113, 2-Amino-6-(2,6-dichlorophenyl)-8-pyridin-4-ylmethyl-8H-pyrido[2,3-d]pyrimidin-7-one], the IC50 in assay [2] worked out at 6700 nM; in assay [3], 1760 nM. Also, the inhibition at 50 µM at C-src kinase was found to be 87%.

As for `CCn1c(=O)c(-c2ccccc2)cc2cnc(Nc3ccccc3)nc21` [Example 116, 8-Ethyl-6-phenyl-2-phenylamino-8H-pyrido[2,3-d]-pyrimidin-7-one], the IC50 came to 1960 nM in assay [1] (read-out: FGFr-TK IC50), 180 nM in assay [2], 1380 nM at C-src kinase and 152 nM in assay [3].

With `CSc1ncc2cc(-c3c(Cl)cccc3Cl)c(=O)n(C)c2n1` [Example 37, 6-(2,6-Dichlorophenyl)-8-methyl-2-methylsulfanyl-8H pyrido[2,3-d]pyrimidin-7-one], the inhibition at 50 µM in assay [1] (read-out: FGFr-TK % Inhibition at 50 µM) is 29%; in assay [2], 42%; on C-src kinase it was 33%; in assay [3], 33%.

On to `Nc1ncc2cc(-c3c(Cl)cccc3Cl)c(=O)n(CCCc3ccccc3)c2n1` [Example 114, 2-Amino-6-(2,6-dichlorophenyl)-8-(3-phenylpropyl)-8H-pyrido[2,3-d]pyrimidin-7-one], for which the IC50 in assay [1] (read-out: FGFr-TK IC50) came out at 3310 nM; in assay [2] it was 3200 nM; at C-src kinase, 1090 nM; in assay [3], 5170 nM.

Take `CN1CCN(CCCCCNc2ncc3cc(-c4c(Cl)cccc4Cl)c(=O)n(C)c3n2)CC1` [Example 81, 6-(2,6-Dichlorophenyl)-8-methyl-2-[5-(4-methylpiperazin-1-yl)-pentylamino]-8H-pyrido[2,3-d]pyrimdin-7-one]: the results for the IC50 in assay [2] and in assay [3] were 4500 nM and 743 nM, respectively. The inhibition at 50 µM on C-src kinase stood at 94%.

`CCn1c(=O)c(-c2c(Cl)cccc2Cl)cc2cnc(N)nc21` [Example 30, 2-Amino-6-(2,6-dichlorophenyl)-8-ethyl-pyrido[2,3-d]-pyrimidin-7(8H)-one]: the inhibition at 50 µM in assay [2] came out at 77%. Moreover, the figures for the IC50 (at C-src kinase; in assay [3]) were 155 nM and 980 nM, respectively.

With `Cn1c(=O)c(-c2c(Cl)cccc2Cl)cc2cnc(Nc3cccc(O)c3)nc21` [Example 87, 6-(2,6-Dichlorophenyl)-2-(3-hydroxyphenylamino)-8-methyl-8H-pyrido[2,3-d]pyrimidin-7-one], the IC50 in assay [2] worked out at 140 nM; in assay [3], 350 nM.

As for `COc1ccc(Nc2ncc3cc(-c4c(Cl)cccc4Cl)c(=O)n(C)c3n2)cc1` [Example 64, 6-(2,6-Dichlorophenyl)-2-(4-methoxyphenylamino)-8-methyl-8H-pyrido[2,3-d]pyrimidin-7-one], the IC50 was 403 nM in assay [1] (read-out: FGFr-TK IC50), 65 nM in assay [2] and 546 nM in assay [3].
